The kinase profiling compilation of Christmann-Franck et al. (2016)

Tests used:
Assay in all cases: KINOMEscan competition binding
Conditions in all cases: compound 10.0 µM
[1] = tested on: KIT (human), P10721 [V559D]
[2] = molecular target: RPS6KA2 KD2 (human) (UniProt Q15349)
[3] = molecular target: CDK16 (human) (UniProt Q00536)
[4] = molecular target: EPHA3 (human) (UniProt P29320)
[5] = molecular target: SGK110 (human) (UniProt P0C264)
[6] = molecular target: ERBB2 (human) (UniProt P04626)
[7] = molecular target: DDR2 (human) (UniProt Q16832)
[8] = molecular target: MUSK (human) (UniProt O15146)
Chain of MUSK (human) (O15146 whole entry, looked up): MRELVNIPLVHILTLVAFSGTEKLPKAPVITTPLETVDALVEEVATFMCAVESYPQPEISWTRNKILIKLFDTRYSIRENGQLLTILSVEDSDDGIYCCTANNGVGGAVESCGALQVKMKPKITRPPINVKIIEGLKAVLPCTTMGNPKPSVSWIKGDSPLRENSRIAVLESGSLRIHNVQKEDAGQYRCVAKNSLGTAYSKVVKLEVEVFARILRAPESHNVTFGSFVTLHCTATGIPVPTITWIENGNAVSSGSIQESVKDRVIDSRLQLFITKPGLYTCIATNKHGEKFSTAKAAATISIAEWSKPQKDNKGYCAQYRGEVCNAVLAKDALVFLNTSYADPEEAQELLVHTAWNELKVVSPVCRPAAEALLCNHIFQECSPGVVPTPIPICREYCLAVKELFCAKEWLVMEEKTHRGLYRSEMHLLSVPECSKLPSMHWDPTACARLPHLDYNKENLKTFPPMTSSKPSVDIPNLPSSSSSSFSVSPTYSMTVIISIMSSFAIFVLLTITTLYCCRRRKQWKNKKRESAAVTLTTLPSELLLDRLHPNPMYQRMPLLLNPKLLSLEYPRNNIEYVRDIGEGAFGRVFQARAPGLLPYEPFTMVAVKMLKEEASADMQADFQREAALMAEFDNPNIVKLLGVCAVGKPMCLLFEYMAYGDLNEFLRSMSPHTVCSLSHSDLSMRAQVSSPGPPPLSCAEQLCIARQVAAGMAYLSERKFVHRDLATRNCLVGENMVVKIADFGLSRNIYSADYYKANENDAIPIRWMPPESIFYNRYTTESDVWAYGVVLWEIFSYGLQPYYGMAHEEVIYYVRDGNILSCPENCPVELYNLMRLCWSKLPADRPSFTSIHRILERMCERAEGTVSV

[9] = molecular target: PLK3 (human) (UniProt Q9H4B4)
[10] = molecular target: MST1R (human) (UniProt Q04912)
[11] = molecular target: FER (human) (UniProt P16591)
[12] = molecular target: EPHA2 (human) (UniProt P29317)
[13] = molecular target: STK17A (human) (UniProt Q9UEE5)
Chain of STK17A (human) (Q9UEE5 whole entry, looked up): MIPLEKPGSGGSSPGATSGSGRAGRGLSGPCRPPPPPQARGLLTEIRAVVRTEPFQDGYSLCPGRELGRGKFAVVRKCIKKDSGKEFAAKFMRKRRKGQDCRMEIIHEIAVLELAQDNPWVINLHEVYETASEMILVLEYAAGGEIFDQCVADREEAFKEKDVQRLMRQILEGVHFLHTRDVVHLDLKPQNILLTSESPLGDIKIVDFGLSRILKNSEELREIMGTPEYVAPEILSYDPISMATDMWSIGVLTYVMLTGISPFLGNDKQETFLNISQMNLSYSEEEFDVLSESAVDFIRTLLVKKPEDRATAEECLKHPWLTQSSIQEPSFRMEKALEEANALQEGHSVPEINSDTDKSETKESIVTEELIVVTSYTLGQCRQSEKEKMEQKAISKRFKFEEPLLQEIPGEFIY

[14] = molecular target: FLT4 (human) (UniProt P35916)
[15] = molecular target: ULK2 (human) (UniProt Q8IYT8)
[16] = molecular target: MKNK2 (human) (UniProt Q9HBH9)
[17] = molecular target: ULK1 (human) (UniProt O75385)
Chain of ULK1 (human) (O75385 whole entry, looked up): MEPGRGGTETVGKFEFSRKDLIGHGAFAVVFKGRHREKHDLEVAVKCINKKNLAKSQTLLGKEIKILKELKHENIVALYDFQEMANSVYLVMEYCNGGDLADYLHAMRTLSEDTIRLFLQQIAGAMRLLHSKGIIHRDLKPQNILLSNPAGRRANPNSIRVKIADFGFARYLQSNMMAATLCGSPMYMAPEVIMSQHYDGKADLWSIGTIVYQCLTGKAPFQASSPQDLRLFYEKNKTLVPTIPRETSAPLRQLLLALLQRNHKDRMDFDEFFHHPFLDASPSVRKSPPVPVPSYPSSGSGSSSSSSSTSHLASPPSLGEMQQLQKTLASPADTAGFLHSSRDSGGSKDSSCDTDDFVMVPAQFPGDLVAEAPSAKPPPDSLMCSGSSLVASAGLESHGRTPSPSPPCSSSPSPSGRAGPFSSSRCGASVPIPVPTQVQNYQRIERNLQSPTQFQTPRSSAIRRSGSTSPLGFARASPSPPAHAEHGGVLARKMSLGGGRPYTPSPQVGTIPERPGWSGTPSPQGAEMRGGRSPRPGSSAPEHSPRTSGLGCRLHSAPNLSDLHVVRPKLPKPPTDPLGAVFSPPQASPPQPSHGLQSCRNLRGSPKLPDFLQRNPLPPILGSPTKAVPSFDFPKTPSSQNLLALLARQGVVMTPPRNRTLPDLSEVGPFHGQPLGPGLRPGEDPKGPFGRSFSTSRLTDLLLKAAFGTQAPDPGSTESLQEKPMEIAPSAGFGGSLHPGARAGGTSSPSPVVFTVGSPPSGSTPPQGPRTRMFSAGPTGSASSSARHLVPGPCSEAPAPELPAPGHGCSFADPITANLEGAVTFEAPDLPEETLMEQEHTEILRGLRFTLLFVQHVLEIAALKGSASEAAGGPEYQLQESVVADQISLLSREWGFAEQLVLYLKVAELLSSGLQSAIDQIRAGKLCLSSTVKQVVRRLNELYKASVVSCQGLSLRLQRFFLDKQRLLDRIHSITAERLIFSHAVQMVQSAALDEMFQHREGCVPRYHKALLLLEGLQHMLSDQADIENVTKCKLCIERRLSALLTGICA

[18] = molecular target: ACVR1B (human) (UniProt P36896)
[19] = molecular target: MAPK8 (human) (UniProt P45983)
Chain of MAPK8 (human) (P45983 whole entry, looked up): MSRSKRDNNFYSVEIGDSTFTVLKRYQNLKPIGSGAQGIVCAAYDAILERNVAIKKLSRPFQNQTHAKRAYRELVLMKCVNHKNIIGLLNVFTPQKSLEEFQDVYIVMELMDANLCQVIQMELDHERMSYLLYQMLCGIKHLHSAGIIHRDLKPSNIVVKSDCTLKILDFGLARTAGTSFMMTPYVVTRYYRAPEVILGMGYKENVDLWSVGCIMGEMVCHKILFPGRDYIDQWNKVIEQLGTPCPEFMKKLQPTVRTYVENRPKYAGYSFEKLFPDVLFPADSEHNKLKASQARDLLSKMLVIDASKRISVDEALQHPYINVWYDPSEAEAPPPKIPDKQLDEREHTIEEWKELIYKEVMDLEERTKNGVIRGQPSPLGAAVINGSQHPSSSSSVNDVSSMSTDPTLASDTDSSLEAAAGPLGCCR

[20] = molecular target: ADCK4 (human) (UniProt Q96D53)
[21] = molecular target: MAPK7 (human) (UniProt Q13164)
Chain of MAPK7 (human) (Q13164 whole entry, looked up): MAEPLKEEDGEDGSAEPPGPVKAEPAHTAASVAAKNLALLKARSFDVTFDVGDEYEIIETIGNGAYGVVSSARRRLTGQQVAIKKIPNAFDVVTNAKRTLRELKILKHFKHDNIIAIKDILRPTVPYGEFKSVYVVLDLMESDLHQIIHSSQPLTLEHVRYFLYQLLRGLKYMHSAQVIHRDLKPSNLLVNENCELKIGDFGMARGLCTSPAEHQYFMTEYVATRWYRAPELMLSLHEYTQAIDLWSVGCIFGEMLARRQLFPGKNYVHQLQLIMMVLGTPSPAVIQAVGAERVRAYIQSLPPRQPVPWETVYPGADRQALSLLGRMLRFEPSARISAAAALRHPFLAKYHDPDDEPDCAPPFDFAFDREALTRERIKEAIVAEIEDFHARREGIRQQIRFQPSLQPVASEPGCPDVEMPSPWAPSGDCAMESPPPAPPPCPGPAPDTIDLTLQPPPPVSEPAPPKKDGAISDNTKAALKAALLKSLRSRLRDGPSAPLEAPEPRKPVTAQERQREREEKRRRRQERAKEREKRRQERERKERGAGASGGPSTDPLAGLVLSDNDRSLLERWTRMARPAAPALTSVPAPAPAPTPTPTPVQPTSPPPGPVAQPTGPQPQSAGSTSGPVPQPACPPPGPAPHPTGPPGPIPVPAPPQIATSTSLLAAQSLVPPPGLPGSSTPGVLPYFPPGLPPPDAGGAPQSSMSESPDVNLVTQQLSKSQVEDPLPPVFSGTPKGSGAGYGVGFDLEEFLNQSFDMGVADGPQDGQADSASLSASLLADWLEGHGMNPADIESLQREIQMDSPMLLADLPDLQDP

[22] = molecular target: FGFR2 (human) (UniProt P21802)
[23] = molecular target: SIK2 (human) (UniProt Q9H0K1)
[24] = molecular target: AURKA (human) (UniProt O14965)
[25] = molecular target: CLK1 (human) (UniProt P49759)
Chain of CLK1 (human) (P49759 whole entry, looked up): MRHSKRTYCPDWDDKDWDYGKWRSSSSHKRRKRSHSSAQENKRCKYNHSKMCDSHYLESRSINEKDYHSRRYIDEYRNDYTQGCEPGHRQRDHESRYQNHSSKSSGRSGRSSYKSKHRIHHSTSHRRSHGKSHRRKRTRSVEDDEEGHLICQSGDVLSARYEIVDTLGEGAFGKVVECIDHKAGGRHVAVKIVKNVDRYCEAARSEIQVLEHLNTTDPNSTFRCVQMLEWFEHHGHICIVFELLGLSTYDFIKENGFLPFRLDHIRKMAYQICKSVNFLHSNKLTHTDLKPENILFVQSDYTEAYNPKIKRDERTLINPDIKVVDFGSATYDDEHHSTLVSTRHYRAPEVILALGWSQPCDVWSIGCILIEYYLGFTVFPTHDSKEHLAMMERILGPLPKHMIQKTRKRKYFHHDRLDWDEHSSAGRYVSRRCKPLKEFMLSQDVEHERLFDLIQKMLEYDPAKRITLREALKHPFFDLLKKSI

[26] = molecular target: CLK3 (human) (UniProt P49761)
[27] = molecular target: PRKD3 (human) (UniProt O94806)
[28] = molecular target: DCLK1 (human) (UniProt O15075)
[29] = molecular target: TESK1 (human) (UniProt Q15569)
Chain of TESK1 (human) (Q15569 whole entry, looked up): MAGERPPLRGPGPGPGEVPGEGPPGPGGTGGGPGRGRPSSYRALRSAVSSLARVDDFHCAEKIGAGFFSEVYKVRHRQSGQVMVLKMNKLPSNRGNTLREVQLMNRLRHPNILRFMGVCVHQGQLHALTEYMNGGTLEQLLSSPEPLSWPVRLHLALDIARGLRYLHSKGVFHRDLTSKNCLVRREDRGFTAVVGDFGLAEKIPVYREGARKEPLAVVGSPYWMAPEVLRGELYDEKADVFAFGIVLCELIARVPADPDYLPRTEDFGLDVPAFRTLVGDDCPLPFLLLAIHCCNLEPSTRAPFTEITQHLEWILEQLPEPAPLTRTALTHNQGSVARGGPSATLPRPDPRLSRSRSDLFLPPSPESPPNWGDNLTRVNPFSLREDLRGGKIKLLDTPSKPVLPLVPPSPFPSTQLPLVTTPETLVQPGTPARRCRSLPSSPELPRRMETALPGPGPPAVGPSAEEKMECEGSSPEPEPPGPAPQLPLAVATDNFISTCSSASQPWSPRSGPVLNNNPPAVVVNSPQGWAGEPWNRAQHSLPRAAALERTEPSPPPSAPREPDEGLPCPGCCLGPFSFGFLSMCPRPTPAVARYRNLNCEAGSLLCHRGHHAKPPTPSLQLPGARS

[30] = molecular target: CSNK1E (human) (UniProt P49674)
[31] = molecular target: STK16 (human) (UniProt O75716)
Chain of STK16 (human) (O75716 whole entry, looked up): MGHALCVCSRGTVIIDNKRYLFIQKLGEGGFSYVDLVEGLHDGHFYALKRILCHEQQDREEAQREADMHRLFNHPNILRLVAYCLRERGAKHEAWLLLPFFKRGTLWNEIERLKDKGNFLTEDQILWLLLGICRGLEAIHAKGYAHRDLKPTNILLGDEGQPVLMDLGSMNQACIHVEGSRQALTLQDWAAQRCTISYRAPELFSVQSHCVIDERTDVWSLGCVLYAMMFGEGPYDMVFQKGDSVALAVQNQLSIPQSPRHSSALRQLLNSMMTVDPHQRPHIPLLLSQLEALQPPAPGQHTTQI

[32] = molecular target: EPHB1 (human) (UniProt P54762)
[33] = molecular target: PDPK1 (human) (UniProt O15530)
[34] = molecular target: MAP4K2 (human) (UniProt Q12851)
[35] = molecular target: TNNI3K (human) (UniProt Q59H18)
[36] = molecular target: RPS6KA1 KD2 (human) (UniProt Q15418)
[37] = molecular target: CDK7 (human) (UniProt P50613)
[38] = molecular target: WEE2 (human) (UniProt P0C1S8)
[39] = molecular target: PRKACB (human) (UniProt P22694)
[40] = molecular target: PRKAA2 (human) (UniProt P54646)

SMILES: O=C(NC1CC1)c1cccc(-c2ccc3c(NC(=O)C4CC4)n[nH]c3c2)c1
- kinase still bound, per cent of control [1]: 4.8%
- kinase still bound, per cent of control [2]: 82%
- kinase still bound, per cent of control [3]: 5%
- kinase still bound, per cent of control [4]: 64%
- kinase still bound, per cent of control [5]: 100%
- kinase still bound, per cent of control [6]: 100%
- kinase still bound, per cent of control [7]: 90%
- kinase still bound, per cent of control [8]: 91%
- kinase still bound, per cent of control [9]: 100%
- kinase still bound, per cent of control [10]: 90%
- kinase still bound, per cent of control [11]: 78%
- kinase still bound, per cent of control [12]: 100%
- kinase still bound, per cent of control [13]: 96%
- kinase still bound, per cent of control [14]: 100%
- kinase still bound, per cent of control [15]: 77%
- kinase still bound, per cent of control [16]: 50%
- kinase still bound, per cent of control [17]: 100%
- kinase still bound, per cent of control [18]: 59%
- kinase still bound, per cent of control [19]: 40%
- kinase still bound, per cent of control [20]: 88%
- kinase still bound, per cent of control [21]: 93%
- kinase still bound, per cent of control [22]: 100%
- kinase still bound, per cent of control [23]: 91%
- kinase still bound, per cent of control [24]: 86%
- kinase still bound, per cent of control [25]: 77%
- kinase still bound, per cent of control [26]: 80%
- kinase still bound, per cent of control [27]: 100%
- kinase still bound, per cent of control [28]: 96%
- kinase still bound, per cent of control [29]: 100%
- kinase still bound, per cent of control [30]: 80%
- kinase still bound, per cent of control [31]: 3%
- kinase still bound, per cent of control [32]: 100%
- kinase still bound, per cent of control [33]: 81%
- kinase still bound, per cent of control [34]: 99%
- kinase still bound, per cent of control [35]: 92%
- kinase still bound, per cent of control [36]: 68%
- kinase still bound, per cent of control [37]: 18%
- kinase still bound, per cent of control [38]: 100%
- kinase still bound, per cent of control [39]: 100%
- kinase still bound, per cent of control [40]: 45%

SMILES: CC[C@@H]1C(=O)N(C)c2cnc(Nc3ccc(C(=O)NC4CCN(C)CC4)cc3OC)nc2N1C1CCCC1
- kinase still bound, per cent of control [1]: 100%
- kinase still bound, per cent of control [2]: 7.2%
- kinase still bound, per cent of control [3]: 100%
- kinase still bound, per cent of control [4]: 100%
- kinase still bound, per cent of control [5]: 100%
- kinase still bound, per cent of control [6]: 100%
- kinase still bound, per cent of control [7]: 100%
- kinase still bound, per cent of control [8]: 100%
- kinase still bound, per cent of control [9]: 0%
- kinase still bound, per cent of control [10]: 100%
- kinase still bound, per cent of control [11]: 100%
- kinase still bound, per cent of control [12]: 100%
- kinase still bound, per cent of control [13]: 100%
- kinase still bound, per cent of control [14]: 100%
- kinase still bound, per cent of control [15]: 100%
- kinase still bound, per cent of control [16]: 100%
- kinase still bound, per cent of control [17]: 100%
- kinase still bound, per cent of control [18]: 100%
- kinase still bound, per cent of control [19]: 100%
- kinase still bound, per cent of control [20]: 100%
- kinase still bound, per cent of control [21]: 19%
- kinase still bound, per cent of control [22]: 100%
- kinase still bound, per cent of control [23]: 100%
- kinase still bound, per cent of control [24]: 100%
- kinase still bound, per cent of control [25]: 100%
- kinase still bound, per cent of control [26]: 29%
- kinase still bound, per cent of control [27]: 10%
- kinase still bound, per cent of control [28]: 5.4%
- kinase still bound, per cent of control [29]: 100%
- kinase still bound, per cent of control [30]: 100%
- kinase still bound, per cent of control [31]: 14%
- kinase still bound, per cent of control [32]: 100%
- kinase still bound, per cent of control [33]: 100%
- kinase still bound, per cent of control [34]: 100%
- kinase still bound, per cent of control [35]: 100%
- kinase still bound, per cent of control [36]: 21%
- kinase still bound, per cent of control [37]: 100%
- kinase still bound, per cent of control [38]: 100%
- kinase still bound, per cent of control [39]: 100%
- kinase still bound, per cent of control [40]: 100%
